From patent US20200289434A1, “RAPIDLY IMPROVING ENDOTHELIAL FUNCTION, REDUCING ARTERIAL STIFFNESS AND REVERSING CALCIFICATION OF BLOOD VESSELS BY ADMINISTERING VITAMIN K” (KAYDENCE PHARMA AS, priority 2019, published 2020)

Tests used:
ApoE/LDLR−/− mice = test: Example 3 second part: nitrite and nitrate concentration in plasma; type: in vivo; details: eight weeks
[1] = mouse, in vivo

CC(C)=CCC/C(C)=C/CC/C(C)=C/CC/C(C)=C/CC/C(C)=C/CC/C(C)=C/CC/C(C)=C/CC1=C(C)C(=O)c2ccccc2C1=O [MK-7, menaquinone-7]
concentration of NO3− in plasma (ApoE/LDLR−/− mice; 0.03 or 10 mg/kg b.w./day): did not change significantly
increase in NO2− concentration in plasma (ApoE/LDLR−/− mice; high dose 10 mg/kg b.w./day): ~42%
increase in NO2− concentration in plasma (ApoE/LDLR−/− mice; low dose 0.03 mg/kg b.w./day): about 58%
vitamin K1 and K1 2,3-epoxide plasma concentration [1]: tent to decrease
concentration of MK4 2,3-epoxide in plasma ([1]; 5 mg/kg/day): maintained at similar level
plasma concentration of K2 (MK-7) ([1]; 5 mg/kg/day): dose-dependent increase
plasma concentration of MK-4 ([1]; 5 mg/kg/day): dose-dependent increase
